Measurements published in article PMC12028158, “Synthesis and In Vitro Evaluation of the Anticancer Effect of Novel Phosphonium Vindoline Derivatives” (International Journal of Molecular Sciences, 2025).
Read-outs that look alike come from different tables or passages of the source.

Tests used:
Format in all cases: cell-based
Prostate Cancer panel = experiment: NCI60 five-dose screen, panel mean; settings: Homo sapiens, read-out: GI50 Mean
Ovarian Cancer panel = experiment: NCI60 five-dose screen, panel mean; settings: Homo sapiens, read-out: GI50 Mean
A549/ATCC = experiment: NCI60 one-dose screen; settings: Homo sapiens
UACC-257 = experiment: NCI60 five-dose screen; settings: Homo sapiens
SR = experiment: NCI60 five-dose screen; settings: Homo sapiens
HCT-116 [1] = experiment: NCI60 five-dose screen; settings: Homo sapiens
MCF7 [2] = experiment: NCI60 one-dose screen; settings: Homo sapiens
UACC-62 [3] = experiment: NCI60 five-dose screen; settings: Homo sapiens
NCI-H460 = experiment: NCI60 five-dose screen; settings: Homo sapiens
MCF7 [4] = experiment: NCI60 five-dose screen; settings: Homo sapiens
UO-31 = experiment: NCI60 one-dose screen; settings: Homo sapiens
HOP-62 = experiment: NCI60 one-dose screen; settings: Homo sapiens
UACC-62 [5] = experiment: NCI60 one-dose screen; settings: Homo sapiens
HCT-15 = experiment: NCI60 five-dose screen; settings: Homo sapiens
RXF 393 = experiment: NCI60 five-dose screen; settings: Homo sapiens
NCI-H322M = experiment: NCI60 one-dose screen; settings: Homo sapiens, read-out: Growth percent
K-562 = experiment: NCI60 one-dose screen; settings: Homo sapiens
U251 = experiment: NCI60 one-dose screen; settings: Homo sapiens
SK-MEL-28 = experiment: NCI60 five-dose screen; settings: Homo sapiens
HL-60(TB) = experiment: NCI60 one-dose screen; settings: Homo sapiens
NCI/ADR-RES = experiment: NCI60 one-dose screen; settings: Homo sapiens, read-out: Growth percent
DU-145 = experiment: NCI60 five-dose screen; settings: Homo sapiens
HS 578T = experiment: NCI60 five-dose screen; settings: Homo sapiens
[6] = test system: 60 human tumor cell lines (NCI60); experiment: NCI60 five-dose screen, overall mean
CAKI-1 = experiment: NCI60 five-dose screen; settings: Homo sapiens
Leukemia panel = experiment: NCI60 five-dose screen, panel mean; settings: Homo sapiens, read-out: GI50 Mean
NCI-H226 [7] = experiment: NCI60 five-dose screen; settings: Homo sapiens
NCI-H23 = experiment: NCI60 five-dose screen; settings: Homo sapiens
SK-MEL-5 = experiment: NCI60 five-dose screen; settings: Homo sapiens
M14 = experiment: NCI60 one-dose screen; settings: Homo sapiens
HCT-116 [8] = experiment: NCI60 one-dose screen; settings: Homo sapiens
OVCAR-5 = experiment: NCI60 one-dose screen; settings: Homo sapiens
NCI-H226 [9] = experiment: NCI60 one-dose screen; settings: Homo sapiens
SK-OV-3 = experiment: NCI60 five-dose screen; settings: Homo sapiens
SN12C = experiment: NCI60 one-dose screen; settings: Homo sapiens, read-out: Growth percent
[10] = UO-31, read-out: Growth percent
[11] = HOP-62, read-out: Growth percent
[12] = UACC-62, read-out: Growth percent
[13] = U-251, read-out: Growth percent
[14] = HL-60, read-out: Growth percent
[15] = 60 cell, read-out: Mean GI50, mean over all 60 cell lines
[16] = read-out: GI50 Mean, mean over all 60 human cancer cell lines
[17] = HCT-116, read-out: Growth percent
[18] = OVCAR-5, read-out: Growth percent
[19] = NCI-H226, read-out: Growth percent

With `CC[C@]12C=CCN3CC[C@@]4(c5ccc(OC)cc5N(C)[C@H]4[C@@](O)(C(=O)OC)[C@@H]1OC(=O)CCCC[P+](c1ccc(C)cc1)(c1ccc(C)cc1)c1ccc(C)cc1)[C@@H]32` [10a] the GI50 (Prostate Cancer panel) was 0.8 µM, the GI50 (Ovarian Cancer panel) was 2.54 µM and the activity at 10 µM (A549/ATCC; A549, read-out: Growth percent) was -92.2%. It also gave a GI50 (UACC-257; UACC-257) of 817 nM, a GI50 (SR) of 360 nM and a GI50 (HCT-116 [1]; HCT-116) of 452 nM. For the same molecule, the activity at 10 µM (MCF7 [2]; MCF7, read-out: Growth percent) was -81.2%, the GI50 (UACC-62 [3]; UACC-62) was 705 nM and the GI50 (NCI-H460; NCI-H460) was 600 nM. It also gave a GI50 (MCF7 [4]; MCF7) of 325 nM, an activity at 10 µM (UO-31; [10]) of -96% and an activity at 10 µM (HOP-62; [11]) of -84%. It also gave an activity at 10 µM (UACC-62 [5]; [12]) of -97.4%, a GI50 (HCT-15; HCT-15) of 2.17 µM and a GI50 (RXF 393; RXF 393) of 468 nM. For the same molecule, the activity at 10 µM (NCI-H322M) was -97.6%, the activity at 10 µM (K-562; K562, read-out: Growth percent) was 0.8% and the activity at 10 µM (U251; [13]) was -93.6%. The GI50 (SK-MEL-28; SK-MEL-28) was 485 nM, the activity at 10 µM (HL-60(TB); [14]) was -42.2% and the activity at 10 µM (NCI/ADR-RES) was 71.8%. The GI50 (DU-145; DU-145) was 1.15 µM, the GI50 (HS 578T; Hs-578T) was 1200 nM and the GI50 [6, 15] was under 3000 nM. The GI50 [6, 16] was 1230 nM, the GI50 (CAKI-1; CAKI-1) was 7.46 µM and the GI50 (Leukemia panel) was 480 nM. For the same molecule, the GI50 (NCI-H226 [7]; NCI-H226) was 1430 nM, the GI50 (NCI-H23; NCI-H23) was 855 nM and the GI50 (SK-MEL-5; SK-MEL-5) was 1570 nM. For the same molecule, the activity at 10 µM (M14; M14, read-out: Growth percent) was -88.3%, the activity at 10 µM (HCT-116 [8]; [17]) was -93.5% and the activity at 10 µM (OVCAR-5; [18]) was -96%. It also gave an activity at 10 µM (NCI-H226 [9]; [19]) of -78.6%, a GI50 (SK-OV-3; SK-OV-3) of 1040 nM and an activity at 10 µM (SN12C) of -88.5%.
`CC[C@]12C=CCN3CC[C@@]4(c5ccc(OC)cc5N(C)[C@H]4[C@@](O)(C(=O)OC)[C@@H]1OC(=O)CCCC[P+](c1ccc(F)cc1)(c1ccc(F)cc1)c1ccc(F)cc1)[C@@H]32` [10c] showed a GI50 (Prostate Cancer panel; mean over Prostate Cancer panel) of 25.9 µM, a GI50 (Ovarian Cancer panel; mean over Ovarian Cancer panel) of 32.5 µM and an activity at 10 µM (A549/ATCC; A549/ATCC, 10 μM, one-dose, read-out: Growth percent) of 37.5%. The GI50 (UACC-257; UACC-257, UACC-257, Melanoma, read-out: GI50) was 5590 nM, the GI50 (SR; Leukemia, read-out: GI50) was 14500 nM and the GI50 (HCT-116 [1]; HCT-116, Colon Cancer, read-out: GI50) was 25900 nM. The activity at 10 µM (MCF7 [2]; MCF7, 10 μM, one-dose, read-out: Growth percent) was 5.18%, the GI50 (UACC-62 [3]; UACC-62, Melanoma, read-out: GI50) was 11300 nM and the GI50 (NCI-H460; NCI-H460, Non-small Cell Lung Cancer, read-out: GI50) was 29400 nM. For the same molecule, the GI50 (MCF7 [4]; MCF7, MCF7, Breast Cancer, read-out: GI50) was 11500 nM, the activity at 10 µM (UO-31; UO-31, 10 μM, one-dose, read-out: Growth percent) was 85.9% and the activity at 10 µM (HOP-62; HOP-62, 10 μM, one-dose, read-out: Growth percent) was 51%. The activity at 10 µM (UACC-62 [5]; UACC-62, 10 μM, one-dose, read-out: Growth percent) was -69.6%, the GI50 (HCT-15; HCT-15, Colon Cancer, read-out: GI50) was over 100 µM and the GI50 (RXF 393; RXF 393, Renal Cancer, read-out: GI50) was 13300 nM. For the same molecule, the activity at 10 µM (NCI-H322M; 10 μM, one-dose) was 52.9%, the activity at 10 µM (K-562; K562, K-562, 10 μM, one-dose, read-out: Growth percent) was 17.1% and the activity at 10 µM (U251; U-251, U251, 10 μM, one-dose, read-out: Growth percent) was 13%. For the same molecule, the GI50 (SK-MEL-28; SK-MEL-28, Melanoma, read-out: GI50) was 8280 nM, the activity at 10 µM (HL-60(TB); HL-60(TB), 10 μM, one-dose, read-out: Growth percent) was -32.2% and the activity at 10 µM (NCI/ADR-RES; 10 μM, one-dose) was 105%. The GI50 (DU-145; DU-145, Prostate Cancer, read-out: GI50) was 35.4 µM, the GI50 (HS 578T; HS 578T, Breast Cancer, read-out: GI50) was 16900 nM and the GI50 ([6]; mean over all 60 human cancer cell lines, read-out: GI50 Mean) was 24900 nM. The GI50 (CAKI-1; CAKI-1, Renal Cancer, read-out: GI50) was over 100 µM, the GI50 (Leukemia panel; mean over Leukemia panel) was 9860 nM and the GI50 (NCI-H226 [7]; NCI-H226, Non-small Cell Lung Cancer, read-out: GI50) was 27300 nM. It also gave a GI50 (NCI-H23; NCI-H23, Non-small Cell Lung Cancer, read-out: GI50) of 20100 nM, a GI50 (SK-MEL-5; SK-MEL-5, Melanoma, read-out: GI50) of 17100 nM and an activity at 10 µM (M14; M14, 10 μM, one-dose, read-out: Growth percent) of 19.7%. It also gave an activity at 10 µM (HCT-116 [8]; HCT-116, 10 μM, one-dose, read-out: Growth percent) of 23.4%, an activity at 10 µM (OVCAR-5; OVCAR-5, 10 μM, one-dose, read-out: Growth percent) of 49.7% and an activity at 10 µM (NCI-H226 [9]; NCI-H226, 10 μM, one-dose, read-out: Growth percent) of 38%. The GI50 (SK-OV-3; SK-OV-3, Ovarian Cancer, read-out: GI50) was 23500 nM and the activity at 10 µM (SN12C; 10 μM, one-dose) was 10.6%.
In the case of `CC[C@]12C=CCN3CC[C@@]4(c5ccc(OC)cc5N(C)[C@H]4[C@@](O)(C(=O)OC)[C@@H]1OC(=O)CCCC[P+](c1ccc(OC)cc1)(c1ccc(OC)cc1)c1ccc(OC)cc1)[C@@H]32` [10b], the GI50 (Prostate Cancer panel) is reported as 8.28 µM, the GI50 (Ovarian Cancer panel) is reported as 4.11 µM and the activity at 10 µM (A549/ATCC; A549, read-out: Growth percent) is reported as -83.7%. It also gave a GI50 (UACC-257; UACC-257) of 792 nM, a GI50 (SR) of 428 nM and a GI50 (HCT-116 [1]; HCT-116) of 1300 nM. For the same molecule, the activity at 10 µM (MCF7 [2]; MCF7, read-out: Growth percent) was -82.6%, the GI50 (UACC-62 [3]; UACC-62) was 963 nM and the GI50 (NCI-H460; NCI-H460) was 1150 nM. The GI50 (MCF7 [4]; MCF7) was 105 nM, the activity at 10 µM (UO-31; [10]) was 15.5% and the activity at 10 µM (HOP-62; [11]) was -80.8%. For the same molecule, the activity at 10 µM (UACC-62 [5]; [12]) was -95.2%, the GI50 (HCT-15; HCT-15) was 8.79 µM and the GI50 (RXF 393; RXF 393) was 524 nM. For the same molecule, the activity at 10 µM (NCI-H322M) was -89.7%, the activity at 10 µM (K-562; K562, read-out: Growth percent) was 1.01% and the activity at 10 µM (U251; [13]) was -95.9%. For the same molecule, the GI50 (SK-MEL-28; SK-MEL-28) was 486 nM, the activity at 10 µM (HL-60(TB); [14]) was -45.2% and the activity at 10 µM (NCI/ADR-RES) was 84.3%. The GI50 (DU-145; DU-145) was 16 µM, the GI50 (HS 578T; Hs-578T) was 1510 nM and the GI50 [6, 15] was under 3000 nM. It also gave a GI50 [6, 16] of 2200 nM, a GI50 (CAKI-1; CAKI-1) of 15.2 µM and a GI50 (Leukemia panel) of 560 nM. The GI50 (NCI-H226 [7]; NCI-H226) was 2030 nM, the GI50 (NCI-H23; NCI-H23) was 1190 nM and the GI50 (SK-MEL-5; SK-MEL-5) was 1600 nM. The activity at 10 µM (M14; M14, read-out: Growth percent) was -89.8%, the activity at 10 µM (HCT-116 [8]; [17]) was -94.9% and the activity at 10 µM (OVCAR-5; [18]) was -98.6%. For the same molecule, the activity at 10 µM (NCI-H226 [9]; [19]) was -63.6%, the GI50 (SK-OV-3; SK-OV-3) was 1400 nM and the activity at 10 µM (SN12C) was -95.3%.
